Results as given in PMC12259270, “Sensory neuron–expressed FGF13 controls nociceptive signaling in diabetic neuropathy models” (The Journal of Clinical Investigation, 2025).
Residues, ends and D or L forms follow the SMILES beside them. *: point of attachment. Cbz = O=C(OCc1ccccc1)*; OtBu = CC(C)(C)O*

Biological target: T1, human Nav1.5 (Homo sapiens, UniProt Q14524)
T1 construct: expressed in transfected cells; host or cells: HEK293 stably expressing human Nav1.5
Assay: Whole-cell patch-clamp, HEK293 cells stably expressing human Nav1.5
Assay type: cell-based
Details: for Activation / Long-term inactivation, 2nd Pulse / Long-term inactivation, 3rd Pulse / Long-term inactivation, 4th Pulse / Peak Density / Steady state inactivation / Tau (τ): HEK293 Nav1.5
Method: Whole-cell patch clamp electrophysiology
HEK293-Nav1.7 cells, HEK293 stably expressing human Nav1.6 (HEK-Nav1.6), HEK293 stably expressing human Nav1.5 (HEK-Nav1.5), human hIPSC-derived sensory neurons (RealDRGTM from Anatomic Incorporated 1020F1-1M) and donor-derived DRG neurons were plated at low density on glass coverslips and processed for whole-cell patch clamp electrophysiology in voltage-clamp and/or current clamp mode. Whole-cell patch electrophysiological experiments were conducted following previously published studies (26). Current densities were obtained by dividing INa amplitude by membrane capacitance. Current –voltage relationships were generated by plotting current density as a function of the […]. Conductance (G Na) was calculated by the […]
where INa is the current amplitude at voltage Vm, and Erev is the Na+ reversal potential.
Activation curves were derived by plotting normalized GNa as a function of test potential and fitted using […]
Where GNa,Max is the maximum conductance, Va is the membrane potential of half-maximal activation, Em is the membrane voltage and k is the slope factor. For steady -state inactivation, normalized current amplitude (INa/INa,Max) at the test potential was plotted as a function of prepulse potential (Vm) and fitted using the […]
Where Vh is the potential of half-maximal inactivation, E m is the membrane voltage, and k is the slope factor.
Transient INa inactivation decay was estimated with the standard exponential equation. Inactivation time constant (tau, τ) was fitted with the following equation: […]
where I(t) is the amplitude of the current at time t and Iss is the steady-state current during a single voltage-step.
The goodness of fitting was determined by correlation coefficient (R), and the cutoff of R was set at 0.85. To observe effects on long-term inactivation (LTI), a four-step protocol was employed during which cells were subjected to four 0 mV, 20 ms depolarization pulses separated by −90 mV, 40 ms recovery intervals. To control for various cell sizes, the current densities were calculated by dividing INa peak current amplitude/membrane capacitance (Cm). To represent the fraction of channels entering into LTI, the peak INa observed during depolarization cycles 2-4 was normalized to the peak INa observed during depolarization cycle 1 (INa/INa,Cycle 1) and plotted as a function of the depolarization cycle.
The cumulative (frequency-dependent) use-dependency was determined by applying 20 pulses with a depolarization to −10 mV (50 ms duration) and 50 ms recovery intervals with a train of 20 pulses at 10 Hz from a holding potential at -70 mV. The current pulses were normalized to the first reco rded pulse and the currents at the 2nd to 20th pulses were compared. The same train was used to record use-dependency at various frequencies […]
The rate of recovery from inactivation was recorded at -80 mV with a standard repriming voltage protocol.
The cells were prepulsed to -20 mV for 20 ms to inactivate all currents, then driven back to the recovery potential (Vrec) for increasing recovery durations before the test pulse to 0 mV. The maximum pulse rate was 0.5 Hz. The […]
follows previous publications (16). The time constants were estimated from single exponential decay to time courses measured at recovery potentials ranging from -140 to -60 mV with the protocol as mentioned above.
Electrophysiological Recordings
HEK293 cells: Electrophysiological recordings in HEK293 stably expressing Nav1.7 (HEK-Nav1.7), Nav1.5 (HEK-Nav1.5) or Nav1.6 (HEK-Nav1.6) were performed at room temperature using a MultiClamp 700B or an Axopatch 200B amplifier (Molecular Devices) after incubating coverslips for 60 minutes either with 0.1% DMSO or 50 μM PW164 or ZL192 in the extracellular solution. The composition of recording solutions consisted of the […]
following salts: extracellular (mM): 140 NaCl, 3 KCl, 1 MgCl2, 1 CaCl2, 10 HEPES, 10 glucose, pH 7.3; […]
intracellular (mM): 130 CH3O3 SCs, 1 EGTA, 10 NaCl, 10 HEPES, pH 7.3. […]

T1 sequence (Q14524 whole entry): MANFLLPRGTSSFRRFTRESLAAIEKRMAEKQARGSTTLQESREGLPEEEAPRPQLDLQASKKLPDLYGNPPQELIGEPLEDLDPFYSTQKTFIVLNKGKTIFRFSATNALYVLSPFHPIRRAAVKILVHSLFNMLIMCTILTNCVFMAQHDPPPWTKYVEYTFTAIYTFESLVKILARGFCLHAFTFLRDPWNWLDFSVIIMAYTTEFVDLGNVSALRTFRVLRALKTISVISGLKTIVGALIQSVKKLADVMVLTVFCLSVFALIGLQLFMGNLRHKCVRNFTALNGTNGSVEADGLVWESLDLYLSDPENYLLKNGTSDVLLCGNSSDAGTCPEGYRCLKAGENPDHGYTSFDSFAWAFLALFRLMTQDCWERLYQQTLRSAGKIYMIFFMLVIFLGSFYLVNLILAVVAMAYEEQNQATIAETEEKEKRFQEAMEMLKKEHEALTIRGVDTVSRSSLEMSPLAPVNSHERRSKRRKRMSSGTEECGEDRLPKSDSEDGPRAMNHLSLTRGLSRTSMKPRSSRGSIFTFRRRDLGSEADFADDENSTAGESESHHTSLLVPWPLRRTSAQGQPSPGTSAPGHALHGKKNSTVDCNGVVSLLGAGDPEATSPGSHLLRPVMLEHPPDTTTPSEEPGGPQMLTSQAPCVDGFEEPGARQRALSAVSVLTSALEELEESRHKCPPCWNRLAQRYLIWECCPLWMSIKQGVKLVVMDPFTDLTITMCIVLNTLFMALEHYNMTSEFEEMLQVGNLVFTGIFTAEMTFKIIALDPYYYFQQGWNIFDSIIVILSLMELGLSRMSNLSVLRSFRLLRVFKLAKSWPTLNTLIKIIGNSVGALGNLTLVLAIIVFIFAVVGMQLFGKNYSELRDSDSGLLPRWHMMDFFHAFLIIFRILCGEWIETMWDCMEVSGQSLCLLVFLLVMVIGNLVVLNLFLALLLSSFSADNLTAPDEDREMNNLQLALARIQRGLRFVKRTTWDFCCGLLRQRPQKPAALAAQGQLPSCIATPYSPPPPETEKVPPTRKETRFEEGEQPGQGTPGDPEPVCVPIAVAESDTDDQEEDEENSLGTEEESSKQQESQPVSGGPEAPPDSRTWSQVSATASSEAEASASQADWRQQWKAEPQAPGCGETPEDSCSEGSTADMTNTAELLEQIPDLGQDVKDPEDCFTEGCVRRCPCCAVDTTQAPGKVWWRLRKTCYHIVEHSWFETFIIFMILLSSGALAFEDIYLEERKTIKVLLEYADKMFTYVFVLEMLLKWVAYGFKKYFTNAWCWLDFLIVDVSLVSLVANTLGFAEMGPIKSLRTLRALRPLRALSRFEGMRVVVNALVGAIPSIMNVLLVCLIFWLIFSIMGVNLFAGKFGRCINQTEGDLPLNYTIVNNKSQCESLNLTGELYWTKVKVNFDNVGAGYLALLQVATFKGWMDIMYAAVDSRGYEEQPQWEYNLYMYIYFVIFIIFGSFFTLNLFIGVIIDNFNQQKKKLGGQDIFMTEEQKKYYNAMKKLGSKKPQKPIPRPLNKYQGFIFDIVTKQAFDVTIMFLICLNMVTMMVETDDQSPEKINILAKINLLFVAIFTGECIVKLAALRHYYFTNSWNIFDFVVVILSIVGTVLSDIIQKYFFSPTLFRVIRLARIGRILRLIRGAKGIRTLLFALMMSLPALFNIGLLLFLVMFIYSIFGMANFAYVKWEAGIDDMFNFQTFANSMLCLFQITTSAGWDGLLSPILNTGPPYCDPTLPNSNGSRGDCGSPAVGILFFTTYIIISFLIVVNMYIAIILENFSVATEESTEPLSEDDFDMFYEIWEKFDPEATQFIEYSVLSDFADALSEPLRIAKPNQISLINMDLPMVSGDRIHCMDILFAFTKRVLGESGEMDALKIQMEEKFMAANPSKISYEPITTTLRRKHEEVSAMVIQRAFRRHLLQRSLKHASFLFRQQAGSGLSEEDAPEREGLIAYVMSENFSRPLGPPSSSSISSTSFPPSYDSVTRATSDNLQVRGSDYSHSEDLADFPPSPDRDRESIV

`COC(=O)[C@@H](NC(=O)[C@H](CCC(=O)OC(C)(C)C)NC(=O)[C@H](CC(C)C)NC(=O)[C@@H]1CCCN1C(=O)OCc1ccccc1)C(C)C` [PW164] (Cbz-PLE(OtBu)V-OMe) was tested, and the Activation (FGF13-GFP + PW164) was −37.38 ± 2.1 mV, the “Long-term inactivation, 2nd Pulse” value (FGF13-GFP + PW164) was −89.1 ± 1.71 % maximal Na+ current and the “Long-term inactivation, 3rd Pulse” value (FGF13-GFP + PW164) was −86.58 ± 1.69 % maximal Na+ current. The “Long-term inactivation, 4th Pulse” value (FGF13-GFP + PW164) was −84.72 ± 1.83 % maximal Na+ current, the Peak Density (FGF13-GFP + PW164) was −203.0 ± 15.6 pA/pF and the Steady state inactivation (FGF13-GFP + PW164) was −75.9 ± 2.1 mV. The “Tau (τ)” value (FGF13-GFP + PW164) was 0.90 ± 0.04 ms, the Activation (GFP + PW164) was −38.11 ± 1.8 mV and the “Long-term inactivation, 2nd Pulse” value (GFP + PW164) was −91.7 ± 1.27 % maximal Na+ current. The “Long-term inactivation, 3rd Pulse” value (GFP + PW164) was −85.98 ± 2.18 % maximal Na+ current, the “Long-term inactivation, 4th Pulse” value (GFP + PW164) was −84.62 ± 2.28 % maximal Na+ current and the Peak Density (GFP + PW164) was −314.9 ± 17.9 pA/pF. For the same molecule, the Steady state inactivation (GFP + PW164) was −82.7 ± 1.5 mV, the “Tau (τ)” value (GFP + PW164) was 1.12 ± 0.07 ms and the “activity on Nav1.5 currents” value (Nav1.5-expressing HEK293 cells alone or with FGF13-1b or FGF13-1a) was “inactive”.
